According to patent US20260027243A1, “AMPHIPHILIC COMPOUNDS FOR ATTENUATING NEUROTOXICITY OF AMYLOID-beta OLIGOMERS AND DIAGNOSTIC METHODS” (THE BOARD OF TRUSTEES OF THE UNIVERSITY OF ILLINOIS, priority 2022, published 2026):
Where two headings read alike, the source gives them in different places.

How the values were obtained:
[1] = system: interactions between Aβ oligomers and SH-SY5Y cell membranes; assay: Confocal imaging of Aβ oligomers binding to SH-SY5Y cell membranes; assay type: cell-based, human; settings: 5 μM Aβ oligomers, 5 μM compound, 24 h
Method: (§1) Cell Imaging Procedures. For oligomers and fibrils imaging: Human neuroblastoma SH-SY5Y cells were grown with DMEM/10% FBS at 37° C. in a humidified atmosphere with 5% CO2, and an 8-well μ-slides (ibidi) chambered coverslip was seeded the SH-SY5Y cells. At about 80% confluency (24 h after seeding), the cells were treated with DMSO as control group, 5 μM oligomers/fibrils and 5 μM (oligomers/fibrils+ compounds), respectively. After 24 h incubation, the media was removed from each well. The cells were then fixed with 200 μL 3.7% formaldehyde for 15 min and blocked with 200 μL 3% BSA for 10 min. 3% BSA was then removed from the cells and replaced with 100 μL CF594-HJ 3.4 (1 μg/mL in 3% BSA). The cells were incubated with CF594-HJ 3.4 for 2 h at room temperature and were washed with PBS (5×100 μL). Before imaging, the cells in each well were stained with 100 μL NucBlue reagent (Thermo Fisher Scientific) for 15 min and mounted with non-fluorescent mounting media. 5-10 images of each well were taken, and the images were processed and analyzed by Fiji and Zeiss Zen lite software. Three individual replicates were conducted and subjected to the statistical analysis.

[2] = system: Cu^2+-Aβ42-induced toxicity in Neuro2A cells; assay: Cu2+-Aβ42-induced toxicity, Alamar blue cell viability; assay type: cell-based, mouse; settings: [Aβ42]=40 μM, [Cu^2+]=40 μM, compound 10 μM (ZY-12-OMe 5 μM)
Method: FIG. 6. Cell viability results upon incubation of Neuro2A cells with monomeric Aβ42 in the presence or absence of metal ions and amphiphilic compounds. Concentrations: [Aβ42]=40 μM, [Cu^2+]=40 μM, [ZY-12-MT]=[ZY-15-OMe]=[ZY-15-MT]=[ZY-17-MT]=[ZY-5-OMe]=[ZY-5-MT]=[ZY-5-DT]=10 μM, [ZY-12-OMe]=5 μM. The error bars represent the standard deviation from five independent experiments, and the statistical analysis was evaluated according to one-way ANOVA (*p<0.05).
For the Cu^2+-Ap-induced toxicity studies, cells treated were monomeric Aβ42, Cu^2+, monomeric Aβ42+Cu^2+, and monomeric Aβ42+Cu^2++ compounds, respectively. After 40 h incubation, Alamar Blue solution (10 μL) was added, and the cells were incubated for another 90 min at 37° C. The fluorescence intensity of each well was measured at 590 nm (excitation wavelength=560 nm).

[3] = system: interactions between Cu-Aβ species and SH-SY5Y cell membranes; assay: Confocal imaging of Cu-Aβ species binding to SH-SY5Y cell membranes; assay type: cell-based, human; settings: 5 μM Aβ monomers + Cu^2+ + compound, 48 h
Method: For monomers +Cu^2+ imaging: SH-5Y5Y were seeded as mentioned above, and cells were treated with DMSO as control group, 5 μM monomers, 5 μM (monomers +CuCl2) and 5 μM (monomers +CuCl2+compounds) respectively. After 48 h incubation, cells were treated and imaged the same way as mentioned above.

Aβ42 oligomers = target: T1, Aβ42 oligomers (Homo sapiens, UniProt P05067); assay: Fluorescence saturation binding assay with Aβ42 oligomers; settings: for Kd: read-out: Kd, Oligomers
T1 construct: commercial Aβ42 monomer powder (from GL biochem); purchased GL biochem
T1 sequence (P05067 672-713 limits assumed): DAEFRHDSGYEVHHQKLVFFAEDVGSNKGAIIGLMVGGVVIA
Method: Aβ42 oligomers: The 0.5 mg monomeric films were dissolved in 1.1 mL PBS buffer (with final DMSO concentration less than 1%) and incubated at 4° C. overnight. The resulting solution was then centrifuged at 3000 rpm for 15 mins to remove the insoluble aggregates. The clear supernatant was then used for the following experiments. Aβ42 oligomers concentration was checked by measuring the absorbance of the supernatant at 280 nm.
(§2) In Vitro Saturation Binding Studies with Aβ42 Fibrils and Aβ42 Oligomers. To a solution of increasing concentrations of compounds, a fixed concentration of the generated aggregated Aβ42 fibrils or Aβ42 oligomers solutions (5 to 15 NM) was added to yield a total volume of 100 μL. Nonspecific binding was determined […]. The mixture was incubated for 15 min at room temperature. All fluorescence data were obtained on a SpectraMax M2e plate reader (Molecular Devices). The fluorescent intensity was measured at the corresponding emission wavelength of each compound, and the Kd binding curves were generated by GraphPad Prism 8.0 with one site-specific binding model. Equation: Y=Bmax*X/(Kd+X).

[4] = system: interactions between Aβ fibrils and SH-SY5Y cell membranes; assay: Confocal imaging of Aβ fibrils binding to SH-SY5Y cell membranes; assay type: cell-based, human; settings: 5 μM fibrils, 5 μM compound, 24 h
Method: as §1

Aβ42 fibrils = target: T2, Aβ42 fibrils (Homo sapiens, UniProt P05067); assay: Fluorescence saturation binding assay with Aβ42 fibrils; settings: read-out: Kd, Fibrils
T2 construct: commercial Aβ42 monomer powder (from GL biochem); purchased GL biochem
T2 sequence (P05067 672-713 limits assumed): as above
Method: Preparation of the Aβ42 Fibrils and Aβ42 Oligomers. Aβ42 fibrils: 1 mg of commercial Aβ42 monomer powder (from GL biochem) was dissolved in 1 mL 1,1,1,3,3,3-hexafluoro-2-propanol (HFIP) at room temperature and incubated for 1 h. The resulting solution was divided equally into two Eppendorf tubes. The solution in each Eppendorf tube containing 0.5 mg Aβ42 monomer was then evaporated overnight and dried by vacuum centrifuge to generate monomeric films. […] Aβ42 fibrils solution was prepared by dissolving the 0.5 mg monomeric films in 1.1 mL PBS buffer (with final DMSO concentration less than 1%) and stirring at 37° C. for 3 days.
as §2

[5] = system: brain region of 5×FAD mice vs. WT mice; assay: Real-time in vivo NIR fluorescence imaging; parameters: species or system mouse; settings: 5 mg/kg
Method: DCM-OH-2-DT was chosen as the best candidate for real-time in vivo fluorescence imaging studies. Seven-month-old AD mice and age-matched wild type (WT) mice were injected with the compound at 5 mg/kg. The NIR fluorescence intensities from the brain region were collected and analyzed over time. […] These imaging results further support the potential in vivo application of the developed compounds.
In vivo Imaging Studies. The real-time in vivo fluorescence imaging studies were performed with IVIS imaging system. 7-month-old 5×FAD mice (n=3) and age-matched control B6SJLF1/J mice (n=3) were shaved at the brain region before background imaging. All mice were injected with DCM-OH-2-DT (5 mg/kg, 15% DMSO, 85% PBS) via jugular vein injection. The mice were kept on the imaging stage under anesthesia with 2.5% isoflurane gas in an oxygen flow (1.5 L/min) before the imaging and were woken up after the imaging. Fluorescence signals from the brain were recorded at 5-, 15-, 30-, 60-min after the injection of DCM-OH-2-DT with a filter set (excitation at 470 nm and emission at 740 nm). Imaging data was analyzed by Living Image software, and an ROI was drawn around the brain region. The data were analyzed by subtracting the background fluorescence intensity of each mouse. P values were calculated by Student's t test.

[6] = system: native Aβ aggregates in AD mice brain; assay: BBB permeability: in vivo accumulation after intraperitoneal treatment, brain section colocalization; parameters: species or system mouse; settings: 12-month-old AD mice, 0.1 mg/Kg, 10 days
Method: FIG. 13. In vivo accumulation of DCM-OH-2-DT. Fluorescence microscopy images of brain sections from 12-month-old 5×FAD mice administered with DCM-OH-2-DT for 10 days. The brain sections were stained with Thioflavin S (ThS); [ThS]=5 μM, scale bar=125 μm.
Fluorescence Imaging of 5×FAD Mouse Brain Sections and blood-brain barrier (BBB) permeability. To confirm the developed compounds can also bind to native Aβ aggregates, we performed fluorescence imaging studies and colocalization experiments on 5×FAD mouse brain sections. […] This further supports that the compounds are selective and can bind to native soluble Aβ oligomers. Before investigating the blood-brain barrier (BBB) permeability of the developed compounds, their neurotoxicity was measured first (FIG. 12). […] DCM-OH-2 leads to less than 80% cell viability even at 2 μM, which is probably due to its poor solubility. Nevertheless, the DCM-OH-2-DT was chosen as the candidate to test the blood-brain barrier (BBB) permeability. 12-month-old AD mice were treated with compound DCM-OH-2-DT (0.1 mg/Kg) for 10 days via intraperitoneal injection. At the end of treatment, mice brains were harvested and colocalization experiments were performed on the mice brain sections.

[7] = Log D by octanol-PBS partition; assay type: physicochemical; settings: DCM compounds
Method: Log D measurements. The Log D value was measured following a published procedure using slight modifications. In general, compounds in 0.5 mL octanol was subjected to partition with 0.5 mL octanol-saturated PBS. The whole mixture was stirred vigorously for 5 min, and centrifuged at 2,000 rpm for 5 min. The top octanol layer was separated for later fluorescence measurement. The remaining PBS layer was partitioned with 0.5 mL PBS-saturated octanol, and the second top octanol layer was then separated after vigorous stirring and centrifuging at 2,000 rpm for another 5 min. The two octanol layers' fluorescence spectra were recorded. The log D value was calculated by the fluorescence intensity ratio at the compounds' emission wavelength for the above two octanol extractions.

[8] = target: T3, Aβ42 fibrils and oligomers (Homo sapiens, UniProt P05067); assay: Fluorescence turn-on with Aβ42 fibrils and oligomers; assay type: binding
T3 construct: commercial Aβ42 monomer powder (from GL biochem); purchased GL biochem
T3 sequence (P05067 672-713 limits assumed): as above
Method: Fluorescence Spectral Testing of Compounds with Aps2 Fibrils and Aβ42 Oligomers. The formation of Aβ42 fibrils and oligomers was confirmed by the ThT fluorescence turn-on assay. The fluorescence spectra of ThT in PBS (100 μL PBS, 10.0 μM) were recorded as the baseline. After that, either Aβ42 fibrils or oligomers were added to ThT in PBS. The final volume of the solution mixture should be 100 μL, in which the final concentrations of ThT and Aβ42 species were10. μM and 25 μM, respectively.
For the interactions between Aps and compounds, the fluorescence spectra of the compounds' solution (100 μL PBS, 5.0 μM) were recorded as the baseline without adding various Aβ42 species.
After that, either Aβ42 fibrils or oligomers were added to the compounds' solutions in PBS. The final volume of the solution mixture should be 100 μL, in which the final concentrations of the compound and Aβ42 species were 5. μM and 25 μM, respectively.

[9] = target: T4, native Aβ species in 5×FAD mice brain sections (Homo sapiens, UniProt P05067); assay: Fluorescence staining of 5×FAD mice brain sections, colocalization; parameters: species or system mouse; settings: 5×FAD brain sections, compared with ThS
T4 construct: from tissue; host or cells: brain sections of 5×FAD transgenic mice
T4 sequence (P05067 672-713 limits assumed): as above
Method: Histological Staining of 5×FAD Mice Brain Sections. 5×FAD transgenic mice brain sections were blocked with bovine serum albumin (2% BSA in PBS, pH 7.4, 10 min). Then the mice brain sections were transferred to a PBS solution of the compound and incubated for 1 h. […] Then, the brain sections were treated with BSA again (5 min) followed by washing with PBS (3×2 min), DI water (3×2 min). Finally, the mice brain sections were mounted with non-fluorescent mounting media, and the images were obtained by using EVOS FL Auto 2. ImageJ Fiji program was used for colocalization analysis and determination of the Pearson's correlation coefficient. The primary antibodies were labeled with dye CF594 via Mix-n-Stain™ CF™ 594 Antibody Labeling Kit (Sigma Aldrich).

SMILES | Aβ oligomers bound to cell membranes [1] | effect on cell viability under Cu^2+-Aβ42 toxicity [2] | Cu-Aβ species interactions with cell membranes [3] | Kd (Aβ42 oligomers; Table 1, amphiphilic compounds) [nM] | Aβ fibrils binding to cell membranes [4] | Kd (Aβ42 fibrils; Table 1, amphiphilic compounds) [nM] | time to maximum brain NIR fluorescence signal after injection ([5]; jugular vein injection) | brain fluorescence signal, AD mice vs WT mice ([5]; 7-month-old mice, 5-, 15-, and 30-min post injection) | colocalization with ThS after in vivo administration [6] | logD [7] | Kd (Aβ42 oligomers; Table 3, DCM compounds) [nM] | maximum emission wavelength when binding to Aβ aggregates [8] [nm] | region of Aβ aggregates bound [9] | Kd (Aβ42 fibrils; Table 3, DCM compounds) [nM] | binding affinity to oligomers compared with fibrils (Kd comparison) (Aβ42 oligomers; amphiphilic ZY compounds) | binding affinity towards Aβ42 oligomers over fibrils (Aβ42 oligomers; DCM compounds)
CN1CCN(C)CCN(Cc2cc(/C=C/c3ccc(-c4ccc(C=O)cc4)s3)ccc2O)CC1 [ZY-15-MT, (E)-4-(5-(3-((4,7-dimethyl-1,4,7-triazonan-1-yl)methyl)-4-hydroxystyryl)thiophen-2-yl)benzaldehyde] | fewer numbers of Aβ oligomers bound to the cell membranes | significantly increase cell viability | significantly decreased interactions with cell membranes | 2030 ± 110 | not able to significantly decrease the numbers of the Aβ fibrils binding to cell membranes | 530 ± 30 |  |  |  |  |  |  |  |  |  | 
CN1CCN(C)CCN(Cc2cc(/C=C/C=C/C3=CC(=C(C#N)C#N)c4ccccc4O3)cc(CN3CCN(C)CCN(C)CC3)c2O)CC1 [DCM-OH-2-DT, 2-(2-((1E,3E)-4-(3,5-bis((4,7-dimethyl-1,4,7-triazonan-1-yl)methyl)-4-hydroxyphenyl)buta-1,3-dien-1-yl)-4H-chromen-4-ylidene)malononitrile] |  |  |  |  |  |  | about 15 min | significantly higher fluorescence signal in AD mice | good colocalization with ThS | 1.2 ± 0.07 | 430 ± 60 | 730 | bind to the peripheral region of the Aβ aggregates | 500 ± 110 |  | 
COc1cc(/C=C/c2ccc(-c3ccc(C=O)cc3)s2)cc(CN2CCN(C)CCN(C)CC2)c1O [ZY-15-OMe, (E)-4-(5-(3-((4,7-dimethyl-1,4,7-triazonan-1-yl)methyl)-4-hydroxy-5-methoxystyryl)thiophen-2-yl)benzaldehyde] | fewer numbers of Aβ oligomers bound to the cell membranes | significantly increase cell viability | significantly decreased interactions with cell membranes | 470 ± 130 | not able to significantly decrease the numbers of the Aβ fibrils binding to cell membranes | 1240 ± 180 |  |  |  |  |  |  |  |  | higher binding affinity to oligomers over fibrils | 
CN1CCN(C)CCN(Cc2cc(/C=C/C=C/C3=CC(=C(C#N)C#N)c4ccccc4O3)ccc2O)CC1 [DCM-OH-2-MT, 2-(2-((1E,3E)-4-(3-((4,7-dimethyl-1,4,7-triazonan-1-yl)methyl)-4-hydroxyphenyl)buta-1,3-dien-1-yl)-4H-chromen-4-ylidene)malononitrile] |  |  |  |  |  |  |  |  |  | 1.13 ± 0.16 | 230 ± 30 |  | bind to the peripheral region of the Aβ aggregates | 780 ± 110 |  | three times higher binding affinity towards Aβ42 oligomers over fibrils
